Experimental findings from ChEMBL document CHEMBL5052856, “Inhibitors of apol1 and methods of using same” (2021) are described below.

The target of one assay is Apolipoprotein L1 (Homo sapiens, UniProt O14791). In words: Inhibition of APOL1 G1 variant in human HEK293-T-REx cells measured by Thallium assay. In kind it is cell-based.
The test system of assay [1] is Trypanosoma brucei brucei. The assay can be described thus: Antitrypanosomal activity against Trypanosoma brucei brucei assessed as trypanosome lysis using recombinant APOL1 protein G1 variant and measured by Alamar blue based fluoresence assay. In kind it is functional, organism-based.

A word on the IC50: it is the concentration needed to halve the response being measured. `O=C(N[C@H]1CC[C@@H](CO)O1)[C@H]1C[C@H](c2c(-c3ccc(F)cc3)[nH]c3c(F)cc(F)cc32)C1`: the IC50 (against Apolipoprotein L1; in assay [1]) was greater than 1 µM throughout.
Regarding `CC(O)(CO)CNC(=O)[C@H]1C[C@H](c2c(-c3ccc(F)cc3)[nH]c3c(F)cc(F)cc32)C1` (stereo not given in full), the IC50 (at Apolipoprotein L1; in assay [1]) was greater than 1 µM throughout.
In the case of `NC(=O)CNCC1CC(c2c(-c3ccc(F)cc3)[nH]c3c(F)cc(F)cc23)C1` (stereo not given), the IC50 (on Apolipoprotein L1; in assay [1]) was less than 0.25 µM in each case.
With `O=C(NC[C@@H](O)CO)[C@H]1C[C@H](c2c(-c3ccc(F)cc3)[nH]c3c(F)cc(F)cc32)C1`, the IC50 (against Apolipoprotein L1; in assay [1]) was greater than 1 µM in each case.
On to `O=C([C@H]1C[C@H](c2c(-c3ccc(F)cc3)[nH]c3c(F)cc(F)cc32)C1)N1CCOC[C@H]1CO`, for which the concentration for half-maximal inhibition (IC50) was greater than 1 µM against Apolipoprotein L1 and 0.25 µM in assay [1].
For `O=C([C@H]1C[C@H](c2c(-c3ccc(F)cc3)[nH]c3c(F)cc(F)cc32)C1)N1CC[C@H]1CO` the same measures were 0.00025 µM and less than 0.25 µM.
Turning to `O=C([C@H]1C[C@H](c2c(-c3ccc(F)cc3)[nH]c3c(F)cc(F)cc32)C1)N1CCC[C@@H]1CO`, the IC50 at Apolipoprotein L1 is 0.00025 µM; in assay [1], less than 0.25 µM.
Consider `O=C(NC[C@H](O)CO)[C@H]1C[C@H](c2c(-c3ccc(F)cc3)[nH]c3c(F)cc(F)cc32)C1`, for which the IC50 against Apolipoprotein L1 is greater than 1 µM; in assay [1] it was 0.25 µM.
For `COC[C@@H]1CCN1C(=O)[C@H]1C[C@H](c2c(-c3ccc(F)cc3)[nH]c3c(F)cc(F)cc32)C1` the same measures were greater than 1 µM and less than 0.25 µM.
For `O=C(NC1CNC[C@@H]1O)[C@H]1C[C@H](c2c(-c3ccc(F)cc3)[nH]c3c(F)cc(F)cc32)C1` (stereo not given in full) the same measures were greater than 1 µM and 0.25 µM.
For `N#CC(CO)NC(=O)[C@H]1C[C@H](c2c(-c3ccc(F)cc3)[nH]c3c(F)cc(F)cc32)C1` (stereo not given in full) the same measures were less than 0.25 µM and less than 0.25 µM.
Consider `O=C([C@H]1C[C@H](c2c(-c3ccc(F)cc3)[nH]c3c(F)cc(F)cc32)C1)N1CCC[C@H]1CO`, for which the IC50 was greater than 1 µM against Apolipoprotein L1 and 0.25 µM in assay [1].
Turning to `CC(CO)(CO)NC(=O)[C@H]1C[C@H](c2c(-c3ccc(F)cc3)[nH]c3c(F)cc(F)cc32)C1`, the IC50 (against Apolipoprotein L1; in assay [1]) was less than 0.25 µM each time.
For the molecule `CC1(CO)CCN1C(=O)[C@H]1C[C@H](c2c(-c3ccc(F)cc3)[nH]c3c(F)cc(F)cc32)C1` (stereo not given in full), the figures for the IC50 (against Apolipoprotein L1; in assay [1]) were 0.00025 µM and less than 0.25 µM, respectively.
As for `O=C1N[C@H](CO)C[C@@H]1NC(=O)[C@H]1C[C@H](c2c(-c3ccc(F)cc3)[nH]c3c(F)cc(F)cc32)C1`, the IC50 (at Apolipoprotein L1; in assay [1]) was greater than 1 µM each time.
On to `CC[C@@H](CO)NC(=O)[C@H]1C[C@H](c2c(-c3ccc(F)cc3)[nH]c3c(F)cc(F)cc32)C1`, for which the IC50 on Apolipoprotein L1 is 0.00025 µM; in assay [1], less than 0.25 µM.
For `CCC(CO)NC(=O)[C@H]1C[C@H](c2c(-c3ccc(F)cc3)[nH]c3c(F)cc(F)cc32)C1` (stereo not given in full) the same measures were less than 0.25 µM and 0.25 µM.
With `C[C@]1(NC(=O)[C@H]2C[C@H](c3c(-c4ccc(F)cc4)[nH]c4c(F)cc(F)cc43)C2)C[C@@H](O)C1`, the IC50 against Apolipoprotein L1 was 0.00025 µM; in assay [1], 0.25 µM.
For `NC(=O)CC1CC(c2c(-c3ccc(F)cc3)[nH]c3c(F)cc(F)cc23)C1` (stereo not given) the same measures were less than 0.25 µM and less than 0.25 µM.
As to `O=C(NCC1(O)CC1)[C@H]1C[C@H](c2c(-c3ccc(F)cc3)[nH]c3c(F)cc(F)cc32)C1`, the results for the IC50 (at Apolipoprotein L1; in assay [1]) were 0.00025 µM and 0.25 µM, respectively.
For `CC(CO)N(C)C(=O)[C@H]1C[C@H](c2c(-c3ccc(F)cc3)[nH]c3c(F)cc(F)cc32)C1` (stereo not given in full) the same measures were less than 0.25 µM and 0.25 µM.
For the molecule `O=C(N[C@H]1CCC[C@@H]1O)[C@H]1C[C@H](c2c(-c3ccc(F)cc3)[nH]c3c(F)cc(F)cc32)C1`, the IC50 on Apolipoprotein L1 is 0.00025 µM; in assay [1], 0.25 µM.
For `O=C(NC(CO)C1CC1)[C@H]1C[C@H](c2c(-c3ccc(F)cc3)[nH]c3c(F)cc(F)cc32)C1` (stereo not given in full), the IC50 against Apolipoprotein L1 came to 0.00025 µM; in assay [1] it was 0.25 µM.
Turning to `O=C1NCCC1CNC(=O)[C@H]1C[C@H](c2c(-c3ccc(F)cc3)[nH]c3c(F)cc(F)cc32)C1` (stereo not given in full), the IC50 (against Apolipoprotein L1; in assay [1]) was greater than 1 µM each time.
Consider `CC(C)(O)C(O)CNC(=O)[C@H]1C[C@H](c2c(-c3ccc(F)cc3)[nH]c3c(F)cc(F)cc32)C1` (stereo not given in full), for which the IC50 against Apolipoprotein L1 is greater than 1 µM; in assay [1] it was 0.25 µM.
For `O=C(N[C@H]1CC[C@H](O)C1)[C@H]1C[C@H](c2c(-c3ccc(F)cc3)[nH]c3c(F)cc(F)cc32)C1` the same measures were greater than 1 µM and greater than 1 µM.
Turning to `O=C1OCC[C@@H]1NC(=O)[C@H]1C[C@H](c2c(-c3ccc(F)cc3)[nH]c3c(F)cc(F)cc32)C1`, the figures for the IC50 (at Apolipoprotein L1; in assay [1]) were 0.00025 µM and 0.25 µM, respectively.
Regarding `NC(=O)CNC[C@H]1C[C@H](c2c(-c3ccc(F)cc3)[nH]c3c(F)cc(F)cc32)C1`, the IC50 (at Apolipoprotein L1; in assay [1]) was less than 0.25 µM in each case.
On to `O=C([C@H]1C[C@H](c2c(-c3ccc(F)cc3)[nH]c3c(F)cc(F)cc32)C1)N1CC[C@@H]1CO`, for which the IC50 (against Apolipoprotein L1; in assay [1]) was less than 0.25 µM throughout.
Take `O=C(NC1(CO)CC(F)(F)C1)[C@H]1C[C@H](c2c(-c3ccc(F)cc3)[nH]c3c(F)cc(F)cc32)C1`: the IC50 at Apolipoprotein L1 was 0.00025 µM; in assay [1] it was less than 0.25 µM.
For `CC(C#N)(CO)NC(=O)[C@H]1C[C@H](c2c(-c3ccc(F)cc3)[nH]c3c(F)cc(F)cc32)C1` (stereo not given in full) the same measures were 0.00025 µM and less than 0.25 µM.
With `CC1(NC(=O)[C@H]2C[C@H](c3c(-c4ccc(F)cc4)[nH]c4c(F)cc(F)cc43)C2)CCNC1=O` (stereo not given in full), the IC50 is 0.00025 µM on Apolipoprotein L1 and less than 0.25 µM in assay [1].
For `NC(=O)[C@@H](CO)NC(=O)[C@H]1C[C@H](c2c(-c3ccc(F)cc3)[nH]c3c(F)cc(F)cc32)C1` the same measures were less than 0.25 µM and less than 0.25 µM.
For `C#CC(CO)NC(=O)[C@H]1C[C@H](c2c(-c3ccc(F)cc3)[nH]c3c(F)cc(F)cc32)C1` (stereo not given in full) the same measures were 0.00025 µM and less than 0.25 µM.
For `CC1CC(NC(=O)[C@H]2C[C@H](c3c(-c4ccc(F)cc4)[nH]c4c(F)cc(F)cc43)C2)C(=O)O1` (stereo not given in full) the same measures were greater than 1 µM and greater than 1 µM.
In the case of `O=C(NCC1(O)COC1)[C@H]1C[C@H](c2c(-c3ccc(F)cc3)[nH]c3c(F)cc(F)cc32)C1`, the IC50 against Apolipoprotein L1 was found to be 0.00025 µM; in assay [1], 0.25 µM.
In the case of `O=C([C@H]1C[C@H](c2c(-c3ccc(F)cc3)[nH]c3c(F)cc(F)cc32)C1)N1CC(CO)C1`, the results for the IC50 (against Apolipoprotein L1; in assay [1]) were greater than 1 µM and less than 0.25 µM, respectively.
For `O=C1CN(C(=O)[C@H]2C[C@H](c3c(-c4ccc(F)cc4)[nH]c4c(F)cc(F)cc43)C2)CCN1` the same measures were greater than 1 µM and greater than 1 µM.
On to `NC(=O)CNC[C@H]1C[C@@H](c2c(-c3ccc(F)cc3)[nH]c3c(F)cc(F)cc32)C1`, for which the IC50 (against Apolipoprotein L1; in assay [1]) was less than 0.25 µM throughout.
Consider `O=C([C@H]1C[C@H](c2c(-c3ccc(F)cc3)[nH]c3c(F)cc(F)cc32)C1)N1C[C@@H](O)[C@H](O)C1`, for which the IC50 was greater than 1 µM at Apolipoprotein L1 and 0.25 µM in assay [1].
For `O=C(NC1(CO)CCOC1)[C@H]1C[C@H](c2c(-c3ccc(F)cc3)[nH]c3c(F)cc(F)cc32)C1` (stereo not given in full) the same measures were less than 0.25 µM and less than 0.25 µM.
As to `Cn1ncc(CNC(=O)[C@H]2C[C@H](c3c(-c4ccc(F)cc4)[nH]c4c(F)cc(F)cc43)C2)n1`, the values for the IC50 (at Apolipoprotein L1; in assay [1]) were 0.00025 µM and less than 0.25 µM, respectively.
`CN(C(=O)[C@H]1C[C@H](c2c(-c3ccc(F)cc3)[nH]c3c(F)cc(F)cc32)C1)C1COCC1O` (stereo not given in full): the IC50 (against Apolipoprotein L1; in assay [1]) was greater than 1 µM throughout.
Regarding `NC(=O)C1CC(c2c(-c3ccc(F)cc3)[nH]c3c(F)cc(F)cc23)C1` (stereo not given), the figures for the IC50 (against Apolipoprotein L1; in assay [1]) were 0.00025 µM and 0.25 µM, respectively.
For the molecule `O=C([C@H]1C[C@H](c2c(-c3ccc(F)cc3)[nH]c3c(F)cc(F)cc32)C1)N1CCOC[C@@H]1CO`, the IC50 at Apolipoprotein L1 is 0.00025 µM; in assay [1] it was less than 0.25 µM.
For `CS(=O)(=O)NC(=O)[C@H]1C[C@H](c2c(-c3ccc(F)cc3)[nH]c3c(F)cc(F)cc32)C1` the same measures were greater than 1 µM and greater than 1 µM.
For `O=C([C@H]1C[C@H](c2c(-c3ccc(F)cc3)[nH]c3c(F)cc(F)cc32)C1)N1CCC[C@@H](O)C1` (mixture of isomers) the same measures were 0.00025 µM and less than 0.25 µM.
For `O=C([C@H]1C[C@H](c2c(-c3ccc(F)cc3)[nH]c3c(F)cc(F)cc32)C1)N1CCC[C@H](O)C1` (mixture of isomers) the same measures were greater than 1 µM and 0.25 µM.
Take `C[C@H](CO)N(C)C(=O)[C@H]1C[C@H](c2c(-c3ccc(F)cc3)[nH]c3c(F)cc(F)cc32)C1` (mixture of isomers): the IC50 is 0.00025 µM on Apolipoprotein L1 and less than 0.25 µM in assay [1].
For `O=C(OC1CN(C(=O)C2CC(c3c(-c4ccc(F)cc4)[nH]c4c(F)cc(F)cc34)C2)C1)C1CCOCC1` (trans isomer) the same measures were 0.00025 µM and less than 0.25 µM.
